ChEMBL document CHEMBL1201862, “PubChem BioAssay data set” (2004)
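1) Cells in 96-well plates. 2) Compound, 48 h, 5 concentrations. 3) Linear interpolation between surrounding doses. 4) Unreached endpoint = highest concentration. At the GI50, growth is halved.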 Calls of active or inactive are those of the source. No stated cut-off is given here; in the data, active = GI50 up to about 1.1 µM and inactive = higher.

Tests used:
Assay in all cases: DTP human tumour cell line panel, 48 h
HOP-62 = tested on: HOP-62
CAKI-1 = tested on: CAKI-1
KM12 = tested on: KM12
SK-OV-3 = tested on: SK-OV-3
UACC-62 = tested on: UACC-62
PC-3 = tested on: PC-3
NCI-H226 = tested on: NCI-H226
HOP-92 = tested on: HOP-92
RXF 393 = tested on: RXF 393
HCT-15 = tested on: HCT-15
SF-539 = tested on: SF-539
EKVX = tested on: EKVX
Hs-578T = tested on: Hs-578T
786-0 = tested on: 786-0
M14 = tested on: M14
COLO 205 = tested on: COLO 205
HT-29 = tested on: HT-29
U-251 = tested on: U-251
DU-145 = tested on: DU-145
MDA-MB-435 = tested on: MDA-MB-435
T47D = tested on: T47D
TK-10 = tested on: TK-10
UO-31 = tested on: UO-31
NCI-H460 = tested on: NCI-H460
LOX IMVI = tested on: LOX IMVI
CCRF-CEM = tested on: CCRF-CEM
NCI/ADR-RES = tested on: NCI/ADR-RES
Malme-3M = tested on: Malme-3M
MDA-MB-231 = tested on: MDA-MB-231
MDA-N = tested on: MDA-N
SW-620 = tested on: SW-620
BT-549 = tested on: BT-549
UACC-257 = tested on: UACC-257
SK-MEL-2 = tested on: SK-MEL-2
OVCAR-3 = tested on: OVCAR-3
A549 = tested on: A549
SK-MEL-5 = tested on: SK-MEL-5
SN12C = tested on: SN12C
OVCAR-4 = tested on: OVCAR-4
SF-268 = tested on: SF-268
IGROV-1 = tested on: IGROV-1
A498 = tested on: A498
NCI-H522 = tested on: NCI-H522
RPMI-8226 = tested on: RPMI-8226
OVCAR-5 = tested on: OVCAR-5
SK-MEL-28 = tested on: SK-MEL-28
ACHN = tested on: ACHN
OVCAR-8 = tested on: OVCAR-8
NCI-H23 = tested on: NCI-H23
SF-295 = tested on: SF-295
MCF7 = tested on: MCF7
SNB-19 = tested on: SNB-19
HL-60 = tested on: HL-60
SNB-75 = tested on: SNB-75
HCT-116 = tested on: HCT-116
K562 = tested on: K562
MOLT-4 = tested on: MOLT-4
HCC 2998 = tested on: HCC 2998

## O=C(O)C(O)C(O)C(O)C(O)c1nc2ccccc2s1 (configuration not stated)
HOP-62
  GI50: 18.3 µM (inactive)
CAKI-1
  GI50: 17.7 µM (inactive)
KM12
  GI50: 24.7 µM (inactive)
SK-OV-3
  GI50: 19.1 µM (inactive)
UACC-62
  GI50: 15.3 µM (inactive)
PC-3
  GI50: 15.3 µM (inactive)
NCI-H226
  GI50: 29.8 µM (inactive)
HOP-92
  GI50: 18.2 µM (inactive)
RXF 393
  GI50: 18 µM (inactive)
HCT-15
  GI50: 27.9 µM
SF-539
  GI50: 17.9 µM (inactive)
EKVX
  GI50: 15.4 µM (inactive)
Hs-578T
  GI50: 16.7 µM (inactive)
786-0
  GI50: 16.8 µM (inactive)
M14
  GI50: 17.8 µM (inactive)
COLO 205
  GI50: 34.8 µM (inactive)
HT-29
  GI50: 21.2 µM (inactive)
U-251
  GI50: 15.7 µM (inactive)
DU-145
  GI50: 16.8 µM (inactive)
MDA-MB-435
  GI50: 17.3 µM (inactive)
T47D
  GI50: 19.5 µM (inactive)
TK-10
  GI50: 15.9 µM (inactive)
UO-31
  GI50: 15.9 µM (inactive)
NCI-H460
  GI50: 16.3 µM (inactive)
LOX IMVI
  GI50: 16.9 µM (inactive)
CCRF-CEM
  GI50: 3.53 µM (inactive)
NCI/ADR-RES
  GI50: 31 µM (inactive)
Malme-3M
  GI50: 15.5 µM (inactive)
MDA-MB-231
  GI50: 16.6 µM (inactive)
MDA-N
  GI50: 17.1 µM (inactive)
SW-620
  GI50: 22.3 µM (inactive)
BT-549
  GI50: 26.3 µM (inactive)
UACC-257
  GI50: 15.8 µM (inactive)
SK-MEL-2
  GI50: 19.2 µM (inactive)
OVCAR-3
  GI50: 17.5 µM (inactive)
A549
  GI50: 18.2 µM (inactive)
SK-MEL-5
  GI50: 25.8 µM (inactive)
SN12C
  GI50: 18.7 µM (inactive)
OVCAR-4
  GI50: 20.3 µM (inactive)
SF-268
  GI50: 14.9 µM (inactive)
IGROV-1
  GI50: 10.9 µM (inactive)
A498
  GI50: 24.6 µM (inactive)
NCI-H522
  GI50: 12.3 µM (inactive)
RPMI-8226
  GI50: 25.9 µM (inactive)
OVCAR-5
  GI50: 26.9 µM (inactive)
SK-MEL-28
  GI50: 20.3 µM (inactive)
ACHN
  GI50: 17.7 µM (inactive)
OVCAR-8
  GI50: 18.5 µM (inactive)
NCI-H23
  GI50: 23.2 µM (inactive)
SF-295
  GI50: 15.6 µM (inactive)
MCF7
  GI50: 17.1 µM (inactive)
SNB-19
  GI50: 20.1 µM (inactive)
HL-60
  GI50: 17.6 µM (inactive)
SNB-75
  GI50: 16.9 µM (inactive)
HCT-116
  GI50: 16.1 µM (inactive)

## CCCn1c(C23CC4CC(CC(C4)C2)C3)nc2ccc(Cl)cc2c1=O
HOP-62
  GI50: 23.4 µM (inactive)
CAKI-1
  GI50: 30 µM (inactive)
KM12
  GI50: 31.9 µM (inactive)
SK-OV-3
  GI50: 49.5 µM (inactive)
UACC-62
  GI50: 25.9 µM (inactive)
PC-3
  GI50: 37.1 µM (inactive)
NCI-H226
  GI50: > 100 µM (inactive)
HOP-92
  GI50: 42.8 µM (inactive)
RXF 393
  GI50: 7.11 µM (inactive)
HCT-15
  GI50: 45.6 µM
SF-539
  GI50: > 100 µM (inactive)
EKVX
  GI50: 23.9 µM (inactive)
Hs-578T
  GI50: 63.2 µM (inactive)
786-0
  GI50: 34.2 µM (inactive)
M14
  GI50: 26.1 µM (inactive)
COLO 205
  GI50: 37.2 µM (inactive)
HT-29
  GI50: 24.9 µM (inactive)
U-251
  GI50: 45.1 µM (inactive)
DU-145
  GI50: 27.9 µM (inactive)
MDA-MB-435
  GI50: 36.6 µM (inactive)
T47D
  GI50: 25.8 µM (inactive)
TK-10
  GI50: 48.2 µM (inactive)
UO-31
  GI50: 15.6 µM (inactive)
NCI-H460
  GI50: 36.1 µM (inactive)
LOX IMVI
  GI50: 36.6 µM (inactive)
CCRF-CEM
  GI50: 45.5 µM (inactive)
NCI/ADR-RES
  GI50: 21.9 µM (inactive)
K562
  GI50: 43.6 µM (inactive)
MOLT-4
  GI50: 33.7 µM (inactive)
Malme-3M
  GI50: > 100 µM (inactive)
MDA-MB-231
  GI50: > 100 µM (inactive)
MDA-N
  GI50: 33 µM (inactive)
SW-620
  GI50: > 100 µM (inactive)
BT-549
  GI50: 44.2 µM (inactive)
UACC-257
  GI50: 33.2 µM (inactive)
SK-MEL-2
  GI50: 47.1 µM (inactive)
OVCAR-3
  GI50: 49 µM (inactive)
A549
  GI50: 31.2 µM (inactive)
SK-MEL-5
  GI50: 41.3 µM (inactive)
SN12C
  GI50: 35.2 µM (inactive)
OVCAR-4
  GI50: 42.2 µM (inactive)
SF-268
  GI50: > 100 µM (inactive)
IGROV-1
  GI50: 51.9 µM (inactive)
A498
  GI50: 17.9 µM (inactive)
NCI-H522
  GI50: 47.2 µM (inactive)
RPMI-8226
  GI50: 28.7 µM (inactive)
OVCAR-5
  GI50: 74.8 µM (inactive)
SK-MEL-28
  GI50: 57.5 µM (inactive)
ACHN
  GI50: 21.2 µM (inactive)
OVCAR-8
  GI50: 44.4 µM (inactive)
NCI-H23
  GI50: 50.5 µM (inactive)
SF-295
  GI50: 46.6 µM (inactive)
MCF7
  GI50: 23.7 µM (inactive)
SNB-19
  GI50: 49 µM (inactive)
HL-60
  GI50: 21.6 µM (inactive)
HCT-116
  GI50: 30.1 µM (inactive)

## O=CN1CCN(C(=O)c2ccc(Cl)cc2)C1=S
HOP-62
  GI50: 19.1 µM (inactive)
CAKI-1
  GI50: 14.1 µM (inactive)
KM12
  GI50: 12.7 µM (inactive)
SK-OV-3
  GI50: 25.1 µM (inactive)
UACC-62
  GI50: 15.9 µM (inactive)
PC-3
  GI50: 15.7 µM (inactive)
NCI-H226
  GI50: 43.5 µM (inactive)
HOP-92
  GI50: 0.714 µM (active)
RXF 393
  GI50: 16.8 µM (inactive)
HCT-15
  GI50: 21.3 µM
SF-539
  GI50: 26.6 µM (inactive)
EKVX
  GI50: 15.6 µM (inactive)
Hs-578T
  GI50: 49.5 µM (inactive)
786-0
  GI50: 6.79 µM (inactive)
M14
  GI50: 14.6 µM (inactive)
COLO 205
  GI50: 20.7 µM (inactive)
HT-29
  GI50: 17.2 µM (inactive)
U-251
  GI50: 14.4 µM (inactive)
DU-145
  GI50: 15.7 µM (inactive)
MDA-MB-435
  GI50: 14.8 µM (inactive)
T47D
  GI50: 12.8 µM (inactive)
TK-10
  GI50: 15 µM (inactive)
NCI-H460
  GI50: 21.6 µM (inactive)
LOX IMVI
  GI50: 11.7 µM (inactive)
CCRF-CEM
  GI50: 12.8 µM (inactive)
NCI/ADR-RES
  GI50: 36.5 µM (inactive)
K562
  GI50: 12.9 µM (inactive)
MOLT-4
  GI50: 19.2 µM (inactive)
Malme-3M
  GI50: 24.5 µM (inactive)
MDA-MB-231
  GI50: 16.4 µM (inactive)
MDA-N
  GI50: 16.6 µM (inactive)
SW-620
  GI50: 18 µM (inactive)
BT-549
  GI50: 25.4 µM (inactive)
UACC-257
  GI50: 17.5 µM (inactive)
SK-MEL-2
  GI50: 16.3 µM (inactive)
OVCAR-3
  GI50: 15.4 µM (inactive)
A549
  GI50: 14.9 µM (inactive)
SN12C
  GI50: 14.7 µM (inactive)
OVCAR-4
  GI50: 17.3 µM (inactive)
SF-268
  GI50: 19.2 µM (inactive)
IGROV-1
  GI50: 14.2 µM (inactive)
A498
  GI50: 14.8 µM (inactive)
NCI-H522
  GI50: 14.8 µM (inactive)
RPMI-8226
  GI50: 3.35 µM (inactive)
OVCAR-5
  GI50: 17.4 µM (inactive)
SK-MEL-28
  GI50: 19.1 µM (inactive)
ACHN
  GI50: 17.3 µM (inactive)
OVCAR-8
  GI50: 15.6 µM (inactive)
HCC 2998
  GI50: 19.8 µM (inactive)
NCI-H23
  GI50: 23 µM (inactive)
SF-295
  GI50: 26.9 µM (inactive)
MCF7
  GI50: 2.79 µM (inactive)
SNB-19
  GI50: 15.6 µM (inactive)
HL-60
  GI50: 23.3 µM (inactive)
SNB-75
  GI50: 20 µM (inactive)
HCT-116
  GI50: 18 µM (inactive)
